In patent publication EP0308020A2, “5-(aryl and heteroaryl)-6-(aryl and heteroaryl)-1,2-dihydro-2-oxo 3-pyridinecarboxylic acids and derivatives thereof” (Merck & Co., Inc., priority 1987, dated 1989):
Converted amounts (≈) assume the structure as drawn. Where two headings read alike, the source gives them in different places.

Tests used:
Test in all cases: Agar diffusion assay for antibacterial activity (MIC)
Assay type in all cases: cell-based
[1] = tested on: Escherichia coli MB 2891; settings: read-out: Minimum inhibitory conc.
Method: (§1) A stock solution of each test compound was prepared at a concentration of 1.28 mg/ml using sterile distilled water. After initial solubilization, two-fold dilutions were prepared and added as one-ml portions to 15 x 100 mm petri plates. A nine-ml portion of trypticase soy agar (TSA) was melted and added to each plate. The test compound and agar were mixed and allowed to cool. […] Controls were prepared using norfloxacin, coumermycin A-1, or novobiocin, and solvent.
(§2) Each plate was inoculated using a multipoint inoculator with 10⁵ colony-forming units (cfu) of the appropriate bacterium. Each bacterium was stored at -70°C before use and cultured in trypticase soy broth (TSB) at 35°C for 18 hours. The cultures, containing ca. 10⁹ cfu/ml, were diluted as necessary with TSB to provide concentrations of 10⁵ cfu/inoculation spot. The test plates were then incubated at 35°C for 20 hours. Minimum inhibitory concentrations (MIC) for each compound was the lowest concentration that allowed no growth, a barely visible haze, of five or fewer discrete colonies.
(§3) Table VI includes biological test results for representative compounds of this invention using the agar diffusion assay described above. The particular bacterial strains used are representative of organisms for which the compounds are useful as antibacterial agents.

[2] = tested on: Streptococcus faecalis MB 2864; settings: Enterococcus faecalis, read-out: Minimum inhibitory conc.
Method: as §1, §2, §3

[3] = tested on: Proteus mirabilis MB 2830; settings: read-out: Minimum inhibitory conc.
Method: as §1, §2, §3

[4] = tested on: Staphylococcus aureus MB 4310; settings: read-out: Minimum inhibitory conc.
Method: as §1, §2, §3

[5] = tested on: Escherichia coli MB 5158 (Norfloxacin-resistant strain); settings: 20 h, read-out: Minimum inhibitory conc.
Method: as §1, §2, §3

[6] = tested on: Klebsiella pneumoniae MB 4005; settings: read-out: Minimum inhibitory conc.
Method: as §1, §2, §3

[7] = tested on: Escherichia coli MB 5157; settings: read-out: Minimum inhibitory conc.
Method: as §1, §2, §3

[8] = tested on: Pseudomonas aeruginosa MB 5160 (Norfloxacin-resistant strain); settings: 20 h, read-out: Minimum inhibitory conc.
Method: as §1, §2, §3

[9] = tested on: Pseudomonas aeruginosa MB 2835; settings: MB2835, Ps. aer., strain MB 2835, trypticase soy agar, 10⁵ cfu, 35°C, 20 hours, read-out: Minimum inhibitory conc.
Method: as §1, §2, §3

[10] = tested on: Staphylococcus aureus MB 2865; settings: read-out: Minimum inhibitory conc.
Method: as §1, §2, §3

[11] = MB2891, E. coli, strain MB 2891, trypticase soy agar, 10⁵ cfu, 35°C, 20 hours
[12] = MB2864, Str. fae., strain MB 2864, trypticase soy agar, 10⁵ cfu, 35°C, 20 hours
[13] = MB2830, Pr. mir., strain MB 2830, trypticase soy agar, 10⁵ cfu, 35°C, 20 hours
[14] = MB4310, St. aur., strain MB 4310, trypticase soy agar, 10⁵ cfu, 35°C, 20 hours
[15] = MB4005, K. pneu., strain MB 4005, trypticase soy agar, 10⁵ cfu, 35°C, 20 hours
[16] = MB5157, E. coli, strain MB 5157, trypticase soy agar, 10⁵ cfu, 35°C, 20 hours
[17] = MB2865, St. aur., strain MB 2865, trypticase soy agar, 10⁵ cfu, 35°C, 20 hours

Row | SMILES | MIC [1, 11] [µg/mL] | MIC [2, 12] [µg/mL] | MIC [3, 13] [µg/mL] | MIC [4, 14] [µg/mL] | MIC [5] [µg/mL] | MIC [6, 15] [µg/mL] | MIC [7, 16] [µg/mL] | MIC [8] [µg/mL] | MIC [9] [µg/mL] | MIC [10, 17] [µg/mL] | MIC ([3]; MB2830, 20 h) [µg/mL] | MIC ([1]; MB2891, 20 h) [µg/mL] | MIC ([6]; MB4005, 20 h) [µg/mL] | MIC ([7]; MB5157, 20 h) [µg/mL] | MIC ([2]; MB2864, 20 h) [µg/mL] | MIC ([4]; MB4310, 20 h) [µg/mL] | MIC ([10]; MB2865, 20 h) [µg/mL]
1 | CN(C)c1ccc(-c2[nH]c(=O)c(C(=O)O)cc2-c2ccc(O)cc2)cc1 [Example 30] | 0.25 (≈ 0.714 µM) | 0.5 (≈ 1.43 µM) | 8 (≈ 22.8 µM) | 0.25 (≈ 0.714 µM) | > 128 | < 0.25 | 0.25 (≈ 0.714 µM) | > 128 | > 128 | 0.25 (≈ 0.714 µM) |  |  |  |  |  |  | 
2 | COc1ccc(-c2[nH]c(=O)c(C(=O)O)cc2-c2ccc(F)cc2)cc1 [Example 32, 5-(4-Fluorophenyl)-1,2-dihydro-6-(4-methoxyphenyl)-2-oxo-3-pyridinecarboxylic acid] | 16 (≈ 47.2 µM) | 16 (≈ 47.2 µM) | 32 (≈ 94.3 µM) | 1 (≈ 2.95 µM) | > 128 | 1 (≈ 2.95 µM) | 4 (≈ 11.8 µM) | > 128 | > 128 | 2 (≈ 5.89 µM) |  |  |  |  |  |  | 
3 | CN(C)c1ccc(-c2[nH]c(=O)c(C(=O)O)cc2-c2ccc(F)cc2)cc1 [Example 33] | 16 (≈ 45.4 µM) | 128 (≈ 363 µM) | 128 (≈ 363 µM) | 2 (≈ 5.68 µM) | > 128 | 8 (≈ 22.7 µM) | 8 (≈ 22.7 µM) | > 128 | > 128 | 2 (≈ 5.68 µM) |  |  |  |  |  |  | 
4 | CN(C)c1ccc(-c2[nH]c(=O)c(C(=O)O)cc2-c2ccc(O)cc2)cc1F [Example 34] | 4 (≈ 10.9 µM) | 16 (≈ 43.4 µM) |  | 8 (≈ 21.7 µM) | > 128 | 16 (≈ 43.4 µM) | 16 (≈ 43.4 µM) | > 128 | > 128 | 2 (≈ 5.43 µM) | > 128 |  |  |  |  |  | 
5 | CN(C)c1ccc(-c2[nH]c(=O)c(C(=O)O)cc2-c2ccc(O)cc2)c(F)c1 [Example 35] | 1 (≈ 2.71 µM) | 4 (≈ 10.9 µM) | 32 (≈ 86.9 µM) | 1 (≈ 2.71 µM) | > 128 | 1 (≈ 2.71 µM) | 1 (≈ 2.71 µM) | > 128 | > 128 | 0.5 (≈ 1.36 µM) |  |  |  |  |  |  | 
6 | CSc1ccc(-c2[nH]c(=O)c(C(=O)O)cc2-c2ccc(F)cc2)cc1 [Example 36, 5-(4-fluorophenyl)-1,2-dihydro-6-[4-(methylthio)phenyl]-2-oxo-3-pyridine carboxylic acid] | 64 (≈ 180 µM) | 64 (≈ 180 µM) |  | 8 (≈ 22.5 µM) | > 128 | 16 (≈ 45 µM) | 16 (≈ 45 µM) | > 128 | > 128 | 8 (≈ 22.5 µM) | > 128 |  |  |  |  |  | 
7 | O=C(O)c1cc(-c2ccc(F)cc2)c(-c2ccc(N3CCCCC3)cc2)[nH]c1=O [Example 42] |  | 64 (≈ 163 µM) |  | 1 (≈ 2.55 µM) | > 128 |  |  | > 128 | > 128 | 1 (≈ 2.55 µM) | > 128 | > 128 | > 128 | > 128 |  |  | 
8 | O=C(O)c1cc(-c2ccc(F)cc2)c(-c2ccc(N3CCOCC3)cc2)[nH]c1=O [Example 43] | 16 (≈ 40.6 µM) | 64 (≈ 162 µM) | 128 (≈ 325 µM) | 4 (≈ 10.1 µM) | > 128 | 16 (≈ 40.6 µM) | 8 (≈ 20.3 µM) | > 128 | > 128 | 4 (≈ 10.1 µM) |  |  |  |  |  |  | 
9 | CN1CCN(c2ccc(-c3[nH]c(=O)c(C(=O)O)cc3-c3ccc(F)cc3)cc2)CC1 [Example 44] | 8 (≈ 19.6 µM) | 128 (≈ 314 µM) |  | 16 (≈ 39.3 µM) | > 128 | 32 (≈ 78.5 µM) | 16 (≈ 39.3 µM) | > 128 | > 128 | 32 (≈ 78.5 µM) | > 128 |  |  |  |  |  | 
10 | CS(=O)(=O)c1ccc(-c2[nH]c(=O)c(C(=O)O)cc2-c2ccc(F)cc2)cc1 [Example 47, 5-(4-Fluorophenyl)-1,2-dihydro-6-[4-(methylsulfonyl)phenyl]-2-oxo-3-pyridinecarboxylic acid] |  |  |  |  | > 128 |  |  | > 128 | > 128 |  | > 128 | > 128 | > 128 | > 128 | > 128 | > 128 | > 128
11 | C[S+]([O-])c1ccc(-c2[nH]c(=O)c(C(=O)O)cc2-c2ccc(F)cc2)cc1 (stereo not drawn) [Example 48] |  |  |  |  | > 128 |  |  | > 128 | > 128 |  | > 128 | > 128 | > 128 | > 128 | > 128 | > 128 | > 128
12 | C[N+](C)([O-])c1ccc(-c2[nH]c(=O)c(C(=O)O)cc2-c2ccc(F)cc2)cc1 [Example 49] | 32 (≈ 86.9 µM) | 16 (≈ 43.4 µM) | 64 (≈ 174 µM) | 0.5 (≈ 1.36 µM) | > 128 | 8 (≈ 21.7 µM) | 4 (≈ 10.9 µM) | > 128 | > 128 | 1 (≈ 2.71 µM) |  |  |  |  |  |  | 
13 | C[N+](C)([O-])c1ccc(-c2[nH]c(=O)c(C(=O)O)cc2-c2ccc(O)cc2)cc1 [Example 50] | 8 (≈ 21.8 µM) | 16 (≈ 43.7 µM) | 128 (≈ 349 µM) | 8 (≈ 21.8 µM) | > 128 | 16 (≈ 43.7 µM) | 8 (≈ 21.8 µM) | > 128 | > 128 | 4 (≈ 10.9 µM) |  |  |  |  |  |  | 
14 | CN(C)c1ccc(-c2c(-c3ccc(O)cc3)cc(C(=O)O)c(=O)n2C)cc1 [Example 51, 6-[4-(Dimethylamino)phenyl]-1,2-dihydro-5-(4-hydroxyphenyl)-1-methyl-2-oxo-3-pyridinecarboxylic acid] | 0.5 (≈ 1.37 µM) | 128 (≈ 351 µM) | 32 (≈ 87.8 µM) | 0.5 (≈ 1.37 µM) | > 128 | 16 (≈ 43.9 µM) | 2 (≈ 5.49 µM) | > 128 | > 128 | 1 (≈ 2.74 µM) |  |  |  |  |  |  | 
15 | CN(C)c1ccc(-c2c(-c3ccc(F)cc3)cc(C(=O)O)c(=O)n2C)cc1 [Example 52] | 2 (≈ 5.46 µM) |  |  | 2 (≈ 5.46 µM) | > 128 | 64 (≈ 175 µM) | 4 (≈ 10.9 µM) | > 128 | > 128 | 2 (≈ 5.46 µM) | > 128 |  |  |  | > 128 |  | 
